Data published in the supplement of paper PMC10307832.

Columns and labels:
Assay in all cases: relative viability (nuclei count vs DMSO), 5 days (fraction); higher = more cells survive
201T = tested on: 201T
Outline: (§1)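 Values are medians from duplicate plates. Each reflects relative viability, defined as the nuclei count of treated wells over that of vehicle wells. Lung cancer cell lines in 1536-well plates were pin-tool dosed one day after seeding with one drug alone or with a fixed anchor-drug dose plus five library-drug doses (not always all listed) in √10 steps, then fixed, stained and imaged at 4× after 5 days.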

COR-L 105 = tested on: COR-L 105
Outline: as §1

ChaGo-K-1 = tested on: ChaGo-K-1
Outline: as §1

EKVX = tested on: EKVX
Outline: as §1

H3255 = tested on: H3255
Outline: as §1

HARA = tested on: HARA
Outline: as §1

HCC-827 = tested on: HCC-827
Outline: as §1

HOP-62 = tested on: HOP-62
Outline: as §1

LOU-NH91 = tested on: LOU-NH91
Outline: as §1

NCI-H1975 = tested on: NCI-H1975
Outline: as §1

NCI-H2126 = tested on: NCI-H2126
Outline: as §1

NCI-H2228 = tested on: NCI-H2228
Outline: as §1

NCI-H23 = tested on: NCI-H23
Outline: as §1

NCI-H2405 = tested on: NCI-H2405
Outline: as §1

NCI-H3122 = tested on: NCI-H3122
Outline: as §1

NCI-H596 = tested on: NCI-H596
Outline: as §1

NCI-H727 = tested on: NCI-H727
Outline: as §1

PC-3 [JPC-3] = tested on: PC-3 [JPC-3]
Outline: as §1

SK-LU-1 = tested on: SK-LU-1
Outline: as §1

CCNC(=O)c1noc(-c2cc(C(C)C)c(O)cc2O)c1-c1ccc(CN2CCOCC2)cc1 [Luminespib] + CC1(C)CCC(c2ccc(Cl)cc2)=C(CN2CCN(c3ccc(C(=O)NS(=O)(=O)c4ccc(N[C@H](CCN5CCOCC5)CSc5ccccc5)c(S(=O)(=O)C(F)(F)F)c4)cc3)CC2)C1 [Navitoclax] (partner 0.5 µM)
relative viability (201T; first compound 0.002 µM): 1.17
relative viability (201T; first compound 0.006325 µM): 1.18
relative viability (201T; first compound 0.02 µM): 1.13
relative viability (201T; first compound 0.06325 µM): 1.15
relative viability (201T; first compound 0.2 µM): 1.18
relative viability (COR-L 105; first compound 0.002 µM): 0.729
relative viability (COR-L 105; first compound 0.006325 µM): 0.696
relative viability (COR-L 105; first compound 0.02 µM): 1.12
relative viability (COR-L 105; first compound 0.06325 µM): 0.278
relative viability (COR-L 105; first compound 0.2 µM): 0.234
relative viability (ChaGo-K-1; first compound 0.002 µM): 1.1
relative viability (ChaGo-K-1; first compound 0.02 µM): 0.932
relative viability (ChaGo-K-1; first compound 0.06325 µM): 0.41
relative viability (ChaGo-K-1; first compound 0.2 µM): 0.311
relative viability (EKVX; first compound 0.002 µM): 0.922
relative viability (EKVX; first compound 0.006325 µM): 0.801
relative viability (EKVX; first compound 0.02 µM): 0.677
relative viability (EKVX; first compound 0.06325 µM): 0.518
relative viability (EKVX; first compound 0.2 µM): 0.0817
relative viability (H3255; first compound 0.002 µM): 0.517
relative viability (H3255; first compound 0.006325 µM): 0.511
relative viability (H3255; first compound 0.02 µM): 0.272
relative viability (H3255; first compound 0.06325 µM): 0.536
relative viability (H3255; first compound 0.2 µM): 0.112
relative viability (HARA; first compound 0.002 µM): 1.21
relative viability (HARA; first compound 0.006325 µM): 1.14
relative viability (HARA; first compound 0.02 µM): 1.15
relative viability (HARA; first compound 0.06325 µM): 1.08
relative viability (HARA; first compound 0.2 µM): 0.553
relative viability (HCC-827; first compound 0.002 µM): 1.07
relative viability (HCC-827; first compound 0.006325 µM): 1.02
relative viability (HCC-827; first compound 0.02 µM): 1.04
relative viability (HCC-827; first compound 0.06325 µM): 1.01
relative viability (HCC-827; first compound 0.2 µM): 1
relative viability (HOP-62; first compound 0.002 µM): 1
relative viability (HOP-62; first compound 0.006325 µM): 1.07
relative viability (HOP-62; first compound 0.02 µM): 1.07
relative viability (HOP-62; first compound 0.06325 µM): 0.909
relative viability (HOP-62; first compound 0.2 µM): 0.103
relative viability (LOU-NH91; first compound 0.002 µM): 0.692
relative viability (LOU-NH91; first compound 0.006325 µM): 0.707
relative viability (LOU-NH91; first compound 0.02 µM): 0.49
relative viability (LOU-NH91; first compound 0.06325 µM): 0.257
relative viability (LOU-NH91; first compound 0.2 µM): 0.256
relative viability (NCI-H1975; first compound 0.002 µM): 1.17
relative viability (NCI-H1975; first compound 0.006325 µM): 1.06
relative viability (NCI-H1975; first compound 0.02 µM): 0.877
relative viability (NCI-H1975; first compound 0.06325 µM): 0.218
relative viability (NCI-H1975; first compound 0.2 µM): 0.142
relative viability (NCI-H2126; first compound 0.002 µM): 0.852
relative viability (NCI-H2126; first compound 0.006325 µM): 0.777
relative viability (NCI-H2126; first compound 0.02 µM): 0.506
relative viability (NCI-H2126; first compound 0.06325 µM): 0.864
relative viability (NCI-H2126; first compound 0.2 µM): 0.874
relative viability (NCI-H2228; first compound 0.002 µM): 0.836
relative viability (NCI-H2228; first compound 0.006325 µM): 0.637
relative viability (NCI-H2228; first compound 0.02 µM): 0.614
relative viability (NCI-H2228; first compound 0.06325 µM): 0.11
relative viability (NCI-H2228; first compound 0.2 µM): 0.144
relative viability (NCI-H23; first compound 0.002 µM): 1.08
relative viability (NCI-H23; first compound 0.006325 µM): 0.793
relative viability (NCI-H23; first compound 0.02 µM): 0.625
relative viability (NCI-H23; first compound 0.06325 µM): 0.142
relative viability (NCI-H23; first compound 0.2 µM): 0.13
relative viability (NCI-H2405; first compound 0.002 µM): 0.925
relative viability (NCI-H2405; first compound 0.006325 µM): 0.583
relative viability (NCI-H2405; first compound 0.02 µM): 0.704
relative viability (NCI-H2405; first compound 0.06325 µM): 0.188
relative viability (NCI-H2405; first compound 0.2 µM): 0.143
relative viability (NCI-H3122; first compound 0.002 µM): 1.03
relative viability (NCI-H3122; first compound 0.006325 µM): 0.956
relative viability (NCI-H3122; first compound 0.02 µM): 1.05
relative viability (NCI-H3122; first compound 0.06325 µM): 0.919
relative viability (NCI-H3122; first compound 0.2 µM): 0.196
relative viability (NCI-H596; first compound 0.002 µM): 0.954
relative viability (NCI-H596; first compound 0.006325 µM): 0.886
relative viability (NCI-H596; first compound 0.06325 µM): 0.936
relative viability (NCI-H596; first compound 0.2 µM): 0.996
relative viability (NCI-H727; first compound 0.002 µM): 0.43
relative viability (NCI-H727; first compound 0.006325 µM): 0.449
relative viability (NCI-H727; first compound 0.02 µM): 0.408
relative viability (NCI-H727; first compound 0.06325 µM): 0.218
relative viability (NCI-H727; first compound 0.2 µM): 0.27
relative viability (PC-3 [JPC-3]; first compound 0.002 µM): 0.818
relative viability (PC-3 [JPC-3]; first compound 0.006325 µM): 0.81
relative viability (PC-3 [JPC-3]; first compound 0.02 µM): 0.648
relative viability (PC-3 [JPC-3]; first compound 0.06325 µM): 0.847
relative viability (PC-3 [JPC-3]; first compound 0.2 µM): 0.739
relative viability (SK-LU-1; first compound 0.002 µM): 0.887
relative viability (SK-LU-1; first compound 0.006325 µM): 0.478
relative viability (SK-LU-1; first compound 0.02 µM): 0.505
relative viability (SK-LU-1; first compound 0.06325 µM): 0.117
relative viability (SK-LU-1; first compound 0.2 µM): 0.0911
